Assay results from patent US20220056019A1, “FARNESOID X RECEPTOR AGONISTS AND USES THEREOF” (Metacrine, Inc., priority 2018, published 2022).

Biological target: T1, hFXR (Homo sapiens, UniProt Q96RI1)
T1 construct: expressed in transfected cells; host or cells: CV-1 cells
T1 sequence (Q96RI1 1-486): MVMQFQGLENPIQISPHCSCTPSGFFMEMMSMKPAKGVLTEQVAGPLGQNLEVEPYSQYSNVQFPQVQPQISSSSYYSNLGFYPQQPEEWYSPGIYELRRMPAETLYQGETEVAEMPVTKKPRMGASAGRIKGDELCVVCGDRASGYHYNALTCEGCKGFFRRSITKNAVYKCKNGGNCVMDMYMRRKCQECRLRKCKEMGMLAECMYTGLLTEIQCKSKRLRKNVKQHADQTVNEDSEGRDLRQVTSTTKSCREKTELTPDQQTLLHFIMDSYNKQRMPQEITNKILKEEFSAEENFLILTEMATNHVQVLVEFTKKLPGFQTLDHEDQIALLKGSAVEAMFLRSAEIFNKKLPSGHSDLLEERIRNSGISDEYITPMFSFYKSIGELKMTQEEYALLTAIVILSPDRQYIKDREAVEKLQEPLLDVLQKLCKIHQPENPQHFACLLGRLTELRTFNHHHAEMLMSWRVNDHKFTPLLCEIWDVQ
T1 sequence (P19793 1-462 partner): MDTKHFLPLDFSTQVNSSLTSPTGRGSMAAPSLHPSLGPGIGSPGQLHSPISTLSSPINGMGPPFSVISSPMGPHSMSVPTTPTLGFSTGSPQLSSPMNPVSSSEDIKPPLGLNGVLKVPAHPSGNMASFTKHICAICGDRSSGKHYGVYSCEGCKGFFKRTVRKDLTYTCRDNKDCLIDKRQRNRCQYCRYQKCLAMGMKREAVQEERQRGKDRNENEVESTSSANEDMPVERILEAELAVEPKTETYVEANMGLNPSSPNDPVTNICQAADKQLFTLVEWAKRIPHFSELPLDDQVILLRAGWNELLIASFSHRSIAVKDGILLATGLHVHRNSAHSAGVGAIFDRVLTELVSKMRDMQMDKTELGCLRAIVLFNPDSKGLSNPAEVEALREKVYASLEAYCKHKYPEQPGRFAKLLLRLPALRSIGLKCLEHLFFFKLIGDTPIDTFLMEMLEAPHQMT
Assay: In Vitro FXR Assay (TK): TK-ECRE-luc reporter in transfected CV-1 cells
Type: cell-based
Settings: 18 hrs incubation, luminescence
Method in brief: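 CV-1 cells in DMEM with 10% charcoal-stripped FBS were transiently co-transfected with hFXR, hRXR, TK-ECRE-luc reporter and pCMX-YFP plasmids over 18 h at 37 °C. Compounds serially diluted in DMSO were added for 18 h; cells were then lysed and luciferase luminescence measured.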

Structure (SMILES) | EC50 [nM]
COc1ccc([C@H]2CC[C@H](CN(c3cccc(-c4cnn(C(C)C)c4)c3)C(=O)[C@H]3CC[C@H](OC(=O)NC(C)C)CC3)CC2)cc1C [Compound 5.10, trans-4-((3-(1-Isopropyl-1H-pyrazol-4-yl)phenyl)((trans-4-(4-methoxy-3-methylphenyl)cyclohexyl)methyl)carbamoyl)cyclohexyl isopropylcarbamate] | ≤ 50
COc1ccc(C23CCC(CN(c4cc(-c5cnn(C(C)C)c5)ccn4)C(=O)[C@H]4CC[C@H](OC(=O)N5CC(C(C)(C)O)C5)CC4)(CC2)CC3)cc1C [Compound 4.42, 4-((4-(1-Isopropyl-1H-pyrazol-4-yl)pyridin-2-yl) ((4-(4-methoxy-3-methylphenyl)bicyclo [2.2.2]octan-1-yl)methyl)carbamoyl)cyclohexyl trans-3-(2-hydroxypropan-2-yl)azetidine-1-carboxylate] | ≤ 50
CCCNC(=O)O[C@H]1CC[C@H](C(=O)N(C[C@H]2CC[C@H](c3ccc(OC)c(C)c3)CC2)c2cccc(-c3cnn(C(C)C)c3)c2)CC1 [Compound 5.03, trans-4-((3-(1-Isopropyl-1H-pyrazol-4-yl)phenyl)(((trans)-4-(4-methoxy-3-methylphenyl)cyclohexyl)methyl)carbamoyl)cyclohexyl propylcarbamate] | ≤ 50
COc1ccc([C@H]2CC[C@H](CN(c3cccc(-c4cnn(C(C)C)c4)c3)C(=O)[C@H]3CC[C@H](CNC(=O)OCCO)CC3)CC2)cc1C [Compound 12.06, 2-Hydroxyethyl (((trans)-4-((3-(1-isopropyl-1H-pyrazol-4-yl)phenyl)(((trans)-4-(4-methoxy-3-methylphenyl)cyclohexyl)methyl)carbamoyl)cyclohexyl)methyl)car-bamate] | ≤ 50
COc1ccc(C23CCC(CN(c4cc(-c5cnn(C(C)C)c5)ncn4)C(=O)[C@H]4CC[C@H](OC(=O)N5CC(O)C5)CC4)(CC2)CC3)cc1C [Compound 23, 4-((6-(1-Isopropyl-1H-pyrazol-4-yl)pyrimidin-4-yl)((4-(4-methoxy-3-methylphenyl)bicyclo[2.2.2]octan-1-yl)methyl)carbamoyl)(trans-cyclohexyl) 3-hydroxyazetidine-1-carboxylate] | ≤ 50
CCC1CN(C(=O)O[C@H]2CC[C@H](C(=O)N(CC34CCC(c5ccc(OC)c(C)c5)(CC3)CC4)c3cc(-c4cnn(C(C)C)c4)ccn3)CC2)C1 [Compound 4.54, 4-((4-(1-Isopropyl-1H-pyrazol-4-yl)pyridin-2-yl) ((4-(4-methoxy-3-methylphenyl)bicyclo [2.2.2]octan-1-yl)methyl)carbamoyl)cyclohexyl trans-3-ethylazetidine-1-carboxylate] | ≤ 50
COc1ccc(C23CCC(CN(c4cc(-c5cnn(C(C)C)c5)ccn4)C(=O)[C@H]4CC[C@H](NC(=O)OC(C)C)CC4)(CC2)CC3)cc1C [Compound 8.02, (trans)-Isopropyl (4-((4-(1-isopropyl-1H-pyrazol-4-yl)pyridin-2-yl)((4-(4-methoxy-3-methylphenyl)bicyclo[2.2.2]octan-1-yl)methyl)carbamoyl)cyclohexyl)car-bamate] | ≤ 50
COc1ccc(C23CCC(CN(c4cc(C5CCN(C(C)C)CC5)ccn4)C(=O)[C@H]4CC[C@H](OC(=O)N5CC(O)C5)CC4)(CC2)CC3)cc1C [Compound 23.17, 4-((4-(1-Isopropylpiperidin-4-yl)pyridin-2-yl)((4-(4-methoxy-3-methylphenyl)bicyclo[2.2.2]octan-1-yl)methyl)carbamoyl)cyclo-hexyl trans-3-hydroxyazetidine-1-carboxylate] | 50 to 1000
COc1ccc(C23CCC(CN(c4cc(-c5cnc(C(C)C)s5)ccn4)C(=O)[C@H]4CC[C@H](NC(C)=O)CC4)(CC2)CC3)cc1C [Compound 9.04, (trans)-4-Acetamido-N-(4-(2-isopropylthiazol-5-yl)pyridin-2-yl)-N-((4-(4-methoxy-3-methylphenyl)bicyclo[2.2.2]octan-1-yl)methyl)cyclohexanecarboxamide] | ≤ 50
